Earlier results as cited in patent publication US20260272955A1, “Controlled Release Formulations of Highly Lipophilic Physiologically Active Substances” (ADD Advanced Drug Delivery Technologies Ltd., priority 2019, published 2026).

Settings: decimal logarithm of the n-octanol/water partition coefficient; values typically refer to room temperature (25° C.)

C=C(C)[C@@H]1CCC(C)=C[C@H]1c1c(O)cc(CCCCC)cc1O [Canapure PH, 2-[1R-3-methyl-6R-(1-methylethenyl)-2-cyclohexen-1-yl]-5-pentyl-1,3-benzenediol]
log P: about 6.1
